According to ChEMBL document CHEMBL3616395, “Discovery of 4-arylamido 3-methyl isoxazole derivatives as novel FMS kinase inhibitors” (Eur J Med Chem, 2015):
Calls of active or inactive are those of the source. The rule behind the calls is not given here.

What was measured:
[1] = biological target: Aurora kinase A (Homo sapiens) (UniProt O14965); assay: Inhibition of Aurora A (unknown origin) at 10 uM after 40 mins by scintillation counting analysis
[2] = biological target: Serine/threonine-protein kinase mTOR (Homo sapiens, UniProt P42345); assay: Inhibition of mTOR (unknown origin) at 10 uM after 40 mins by scintillation counting analysis
[3] = species: Homo sapiens; assay: Inhibition of Pi3K (unknown origin) at 10 uM after 40 mins by scintillation counting analysis
[4] = biological target: Serine/threonine-protein kinase PLK1 (Homo sapiens) (UniProt P53350); assay: Inhibition of PLK1 (unknown origin) at 10 uM after 40 mins by scintillation counting analysis
[5] = biological target: Focal adhesion kinase 1 (Homo sapiens) (UniProt Q05397); assay: Inhibition of FAK (unknown origin) at 10 uM after 40 mins by scintillation counting analysis
[6] = biological target: Tyrosine-protein kinase JAK3 (Homo sapiens) (UniProt P52333); assay: Inhibition of Jak3 (unknown origin) at 10 uM after 40 mins by scintillation counting analysis
[7] = biological target: Angiopoietin-1 receptor (Homo sapiens) (UniProt Q02763); assay: Inhibition of TIE2 (unknown origin) at 10 uM after 40 mins by scintillation counting analysis
[8] = system: U-937; assay: Antiproliferative activity against human U937 cells after 24 hrs by MTT assay; type: functional
[9] = biological target: Receptor-type tyrosine-protein kinase FLT3 (Homo sapiens) (UniProt P36888); assay: Inhibition of FLT3 (unknown origin) at 10 uM after 40 mins by scintillation counting analysis
[10] = biological target: Tyrosine-protein kinase ITK/TSK (Homo sapiens) (UniProt Q08881); assay: Inhibition of ITK (unknown origin) at 10 uM after 40 mins by scintillation counting analysis
[11] = biological target: Epidermal growth factor receptor (Homo sapiens) (UniProt P00533); assay: Inhibition of EGFR (unknown origin) at 10 uM after 40 mins by scintillation counting analysis
[12] = biological target: Tyrosine-protein kinase JAK1 (Homo sapiens) (UniProt P23458); assay: Inhibition of JAK1 (unknown origin) at 10 uM after 40 mins by scintillation counting analysis
[13] = biological target: Mitogen-activated protein kinase 8 (Homo sapiens) (UniProt P45983); assay: Inhibition of JNK1 (unknown origin) at 10 uM after 40 mins by scintillation counting analysis
[14] = biological target: Tyrosine-protein kinase Lyn (Homo sapiens, UniProt P07948); assay: Inhibition of Lyn (unknown origin) at 10 uM after 40 mins by scintillation counting analysis
[15] = biological target: Dual specificity mitogen-activated protein kinase kinase 1 (Homo sapiens) (UniProt Q02750); assay: Inhibition of MEK1 (unknown origin) at 10 uM after 40 mins by scintillation counting analysis
[16] = biological target: Platelet-derived growth factor receptor alpha (Homo sapiens) (UniProt P16234); assay: Inhibition of PDGFRalpha (unknown origin) at 10 uM after 40 mins by scintillation counting analysis
[17] = biological target: Protein kinase C (PKC) (Homo sapiens) (UniProt O94806+P41743+P17252+P05129+Q05655+P05771+Q05513+Q02156+P24723+Q15139+Q04759); assay: Inhibition of PKC (unknown origin) at 10 uM after 40 mins by scintillation counting analysis
[18] = biological target: Fibroblast growth factor receptor 3 (Homo sapiens) (UniProt P22607); assay: Inhibition of FGFR3 (unknown origin) at 10 uM after 40 mins by scintillation counting analysis
[19] = biological target: Hepatocyte growth factor receptor (Homo sapiens) (UniProt P08581); assay: Inhibition of c-MET (unknown origin) at 10 uM after 40 mins by scintillation counting analysis
[20] = biological target: cAMP-dependent protein kinase (PKA) (Homo sapiens) (UniProt P22694+P17612+P22612); assay: Inhibition of PKA (unknown origin) at 10 uM after 40 mins by scintillation counting analysis; type: protein assay
[21] = biological target: Tyrosine-protein kinase SYK (Homo sapiens) (UniProt P43405); assay: Inhibition of SYK (unknown origin) at 10 uM after 40 mins by scintillation counting analysis
[22] = biological target: Glycogen synthase kinase-3 beta (Homo sapiens) (UniProt P49841); assay: Inhibition of GSK3b (unknown origin) at 10 uM after 40 mins by scintillation counting analysis
[23] = biological target: Vascular endothelial growth factor receptor 1 (Homo sapiens) (UniProt P17948); assay: Inhibition of FLT1 (unknown origin) at 10 uM after 40 mins by scintillation counting analysis
[24] = biological target: Cyclin-dependent kinase 1/cyclin B (Homo sapiens) (UniProt P06493+P14635+Q8WWL7+O95067); assay: Inhibition of CDK1/cyclin B (unknown origin) at 10 uM after 40 mins by scintillation counting analysis; type: protein-complex assay
[25] = biological target: Proto-oncogene tyrosine-protein kinase Src (Homo sapiens) (UniProt P12931); assay: Inhibition of c-SRC (unknown origin) at 10 uM after 40 mins by scintillation counting analysis
[26] = biological target: Vascular endothelial growth factor receptor 2 (Homo sapiens) (UniProt P35968); assay: Inhibition of VEGFR2 (unknown origin) at 10 uM after 40 mins by scintillation counting analysis
[27] = system: Serine/threonine-protein kinase B-raf (Homo sapiens), P15056 [V600E]; assay: Inhibition of BRAF V599E mutant (unknown origin) at 10 uM after 40 mins by scintillation counting analysis
[28] = biological target: Macrophage colony-stimulating factor 1 receptor (Homo sapiens, UniProt P07333); assay: Inhibition of FMS (unknown origin) after 40 mins by scintillation counting analysis
[29] = biological target: Mitogen-activated protein kinase 3 (Homo sapiens) (UniProt P27361); assay: Inhibition of ErK1 (unknown origin) at 10 uM after 40 mins by scintillation counting analysis
[30] = biological target: Tyrosine-protein kinase HCK (Homo sapiens) (UniProt P08631); assay: Inhibition of HCK (unknown origin) at 10 uM after 40 mins by scintillation counting analysis
[31] = biological target: RAF proto-oncogene serine/threonine-protein kinase (Homo sapiens, UniProt P04049); assay: Inhibition of RAF1 (unknown origin) at 10 uM after 40 mins by scintillation counting analysis
[32] = biological target: Mitogen-activated protein kinase 10 (Homo sapiens) (UniProt P53779); assay: Inhibition of JNK3 (unknown origin) at 10 uM after 40 mins by scintillation counting analysis
[33] = biological target: Proto-oncogene tyrosine-protein kinase ROS (Homo sapiens) (UniProt P08922); assay: Inhibition of ROS1 (unknown origin) at 10 uM after 40 mins by scintillation counting analysis
[34] = biological target: Macrophage-stimulating protein receptor (Homo sapiens) (UniProt Q04912); assay: Inhibition of RON (unknown origin) at 10 uM after 40 mins by scintillation counting analysis
[35] = biological target: Platelet-derived growth factor receptor beta (Homo sapiens) (UniProt P09619); assay: Inhibition of PDGFRbeta (unknown origin) at 10 uM after 40 mins by scintillation counting analysis
[36] = biological target: Serine/threonine-protein kinase B-raf (Homo sapiens, UniProt P15056); assay: Inhibition of BRAF (unknown origin) at 10 uM after 40 mins by scintillation counting analysis

RAF proto-oncogene serine/threonine-protein kinase, sequence (P04049 whole entry): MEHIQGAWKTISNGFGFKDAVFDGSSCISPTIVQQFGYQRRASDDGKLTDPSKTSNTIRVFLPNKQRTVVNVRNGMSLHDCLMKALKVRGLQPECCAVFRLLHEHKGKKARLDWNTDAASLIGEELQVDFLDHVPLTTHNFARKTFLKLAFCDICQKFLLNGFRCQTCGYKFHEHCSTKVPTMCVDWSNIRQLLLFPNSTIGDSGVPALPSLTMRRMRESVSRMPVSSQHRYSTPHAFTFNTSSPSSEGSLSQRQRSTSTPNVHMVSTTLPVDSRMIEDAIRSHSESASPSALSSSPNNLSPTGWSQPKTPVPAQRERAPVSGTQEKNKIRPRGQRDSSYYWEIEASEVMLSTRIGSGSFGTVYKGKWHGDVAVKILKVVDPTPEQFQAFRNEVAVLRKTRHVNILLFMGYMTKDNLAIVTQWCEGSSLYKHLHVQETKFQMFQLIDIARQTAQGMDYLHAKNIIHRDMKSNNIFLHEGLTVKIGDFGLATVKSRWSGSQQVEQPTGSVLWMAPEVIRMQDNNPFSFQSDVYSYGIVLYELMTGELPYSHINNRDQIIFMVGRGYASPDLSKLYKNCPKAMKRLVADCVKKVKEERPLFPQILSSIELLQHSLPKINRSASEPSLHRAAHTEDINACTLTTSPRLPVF
Mitogen-activated protein kinase 10 (Homo sapiens), sequence (P53779 whole entry): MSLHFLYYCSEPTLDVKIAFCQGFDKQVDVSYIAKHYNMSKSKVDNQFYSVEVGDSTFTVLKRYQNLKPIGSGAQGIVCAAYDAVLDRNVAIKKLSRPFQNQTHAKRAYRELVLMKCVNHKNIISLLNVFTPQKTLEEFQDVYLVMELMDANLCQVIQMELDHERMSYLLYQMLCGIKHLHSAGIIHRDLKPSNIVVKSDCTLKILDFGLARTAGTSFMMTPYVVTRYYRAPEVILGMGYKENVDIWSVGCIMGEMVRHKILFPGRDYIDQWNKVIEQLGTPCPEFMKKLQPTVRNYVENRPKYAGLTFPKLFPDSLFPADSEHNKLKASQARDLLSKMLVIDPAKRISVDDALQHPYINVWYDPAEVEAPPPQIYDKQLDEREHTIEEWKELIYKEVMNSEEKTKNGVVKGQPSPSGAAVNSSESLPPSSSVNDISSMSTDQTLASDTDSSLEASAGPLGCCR
Tyrosine-protein kinase HCK (Homo sapiens), sequence (P08631 2-526 limits assumed): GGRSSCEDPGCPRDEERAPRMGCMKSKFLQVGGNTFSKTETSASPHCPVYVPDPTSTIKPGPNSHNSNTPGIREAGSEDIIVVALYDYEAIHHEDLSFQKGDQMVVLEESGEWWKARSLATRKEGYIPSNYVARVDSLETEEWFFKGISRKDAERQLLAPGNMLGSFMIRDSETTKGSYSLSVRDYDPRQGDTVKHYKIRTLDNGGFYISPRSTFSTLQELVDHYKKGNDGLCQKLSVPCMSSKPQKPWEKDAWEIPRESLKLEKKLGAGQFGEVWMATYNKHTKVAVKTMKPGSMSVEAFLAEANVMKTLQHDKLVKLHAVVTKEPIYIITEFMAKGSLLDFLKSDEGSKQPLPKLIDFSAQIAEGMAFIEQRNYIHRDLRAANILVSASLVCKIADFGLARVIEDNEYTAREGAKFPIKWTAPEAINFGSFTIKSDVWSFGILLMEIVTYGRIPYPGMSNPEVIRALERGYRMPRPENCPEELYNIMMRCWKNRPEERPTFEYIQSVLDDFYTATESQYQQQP
Mitogen-activated protein kinase 8 (Homo sapiens), sequence (P45983 whole entry): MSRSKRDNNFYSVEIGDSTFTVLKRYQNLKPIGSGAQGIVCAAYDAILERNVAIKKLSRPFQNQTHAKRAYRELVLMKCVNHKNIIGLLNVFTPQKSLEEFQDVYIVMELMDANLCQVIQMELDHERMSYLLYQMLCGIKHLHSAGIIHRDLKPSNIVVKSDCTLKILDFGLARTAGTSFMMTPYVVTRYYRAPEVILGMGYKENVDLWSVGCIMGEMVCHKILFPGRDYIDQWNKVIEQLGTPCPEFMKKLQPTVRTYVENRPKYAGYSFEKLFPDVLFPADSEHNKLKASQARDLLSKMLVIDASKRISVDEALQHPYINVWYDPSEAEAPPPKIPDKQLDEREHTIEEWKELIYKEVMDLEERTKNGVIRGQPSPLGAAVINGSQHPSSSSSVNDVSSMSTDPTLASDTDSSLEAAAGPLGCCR
Fibroblast growth factor receptor 3 (Homo sapiens), sequence (P22607 23-806 limits assumed): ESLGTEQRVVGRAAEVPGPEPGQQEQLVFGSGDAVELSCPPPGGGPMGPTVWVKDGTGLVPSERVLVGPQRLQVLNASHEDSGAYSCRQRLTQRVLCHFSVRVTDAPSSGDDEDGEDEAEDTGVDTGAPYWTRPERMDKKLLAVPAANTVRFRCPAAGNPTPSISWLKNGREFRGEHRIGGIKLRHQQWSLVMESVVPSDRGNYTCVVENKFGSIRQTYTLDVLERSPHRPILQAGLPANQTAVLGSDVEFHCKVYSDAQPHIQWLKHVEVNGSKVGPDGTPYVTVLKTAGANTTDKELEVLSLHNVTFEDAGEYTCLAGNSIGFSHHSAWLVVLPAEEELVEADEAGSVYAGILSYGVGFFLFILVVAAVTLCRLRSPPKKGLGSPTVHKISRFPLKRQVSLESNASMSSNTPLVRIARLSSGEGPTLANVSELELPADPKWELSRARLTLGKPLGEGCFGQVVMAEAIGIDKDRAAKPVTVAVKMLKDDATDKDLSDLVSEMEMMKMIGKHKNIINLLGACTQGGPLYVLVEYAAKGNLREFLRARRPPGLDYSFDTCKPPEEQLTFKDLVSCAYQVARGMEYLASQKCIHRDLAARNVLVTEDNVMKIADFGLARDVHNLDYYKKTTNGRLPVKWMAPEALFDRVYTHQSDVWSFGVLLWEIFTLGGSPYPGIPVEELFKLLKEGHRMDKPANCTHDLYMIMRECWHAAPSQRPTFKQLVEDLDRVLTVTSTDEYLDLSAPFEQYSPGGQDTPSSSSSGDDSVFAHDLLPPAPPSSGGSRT
Proto-oncogene tyrosine-protein kinase Src (Homo sapiens), sequence (P12931 2-536 limits assumed): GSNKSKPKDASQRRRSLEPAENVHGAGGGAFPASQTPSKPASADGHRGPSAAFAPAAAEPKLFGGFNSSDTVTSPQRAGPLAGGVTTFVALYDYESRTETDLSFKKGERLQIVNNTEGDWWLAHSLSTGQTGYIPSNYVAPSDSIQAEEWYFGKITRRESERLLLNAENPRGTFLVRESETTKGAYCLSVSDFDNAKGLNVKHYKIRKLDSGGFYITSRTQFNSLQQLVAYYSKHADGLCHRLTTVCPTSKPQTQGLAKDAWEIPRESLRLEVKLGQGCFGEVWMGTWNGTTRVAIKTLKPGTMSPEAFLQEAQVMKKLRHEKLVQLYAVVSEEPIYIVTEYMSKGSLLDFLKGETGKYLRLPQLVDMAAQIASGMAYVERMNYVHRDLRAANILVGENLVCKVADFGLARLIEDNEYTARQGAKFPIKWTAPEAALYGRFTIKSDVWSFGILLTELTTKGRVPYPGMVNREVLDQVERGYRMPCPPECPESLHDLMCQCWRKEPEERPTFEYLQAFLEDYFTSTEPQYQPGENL
Tyrosine-protein kinase JAK1 (Homo sapiens), sequence (P23458 whole entry): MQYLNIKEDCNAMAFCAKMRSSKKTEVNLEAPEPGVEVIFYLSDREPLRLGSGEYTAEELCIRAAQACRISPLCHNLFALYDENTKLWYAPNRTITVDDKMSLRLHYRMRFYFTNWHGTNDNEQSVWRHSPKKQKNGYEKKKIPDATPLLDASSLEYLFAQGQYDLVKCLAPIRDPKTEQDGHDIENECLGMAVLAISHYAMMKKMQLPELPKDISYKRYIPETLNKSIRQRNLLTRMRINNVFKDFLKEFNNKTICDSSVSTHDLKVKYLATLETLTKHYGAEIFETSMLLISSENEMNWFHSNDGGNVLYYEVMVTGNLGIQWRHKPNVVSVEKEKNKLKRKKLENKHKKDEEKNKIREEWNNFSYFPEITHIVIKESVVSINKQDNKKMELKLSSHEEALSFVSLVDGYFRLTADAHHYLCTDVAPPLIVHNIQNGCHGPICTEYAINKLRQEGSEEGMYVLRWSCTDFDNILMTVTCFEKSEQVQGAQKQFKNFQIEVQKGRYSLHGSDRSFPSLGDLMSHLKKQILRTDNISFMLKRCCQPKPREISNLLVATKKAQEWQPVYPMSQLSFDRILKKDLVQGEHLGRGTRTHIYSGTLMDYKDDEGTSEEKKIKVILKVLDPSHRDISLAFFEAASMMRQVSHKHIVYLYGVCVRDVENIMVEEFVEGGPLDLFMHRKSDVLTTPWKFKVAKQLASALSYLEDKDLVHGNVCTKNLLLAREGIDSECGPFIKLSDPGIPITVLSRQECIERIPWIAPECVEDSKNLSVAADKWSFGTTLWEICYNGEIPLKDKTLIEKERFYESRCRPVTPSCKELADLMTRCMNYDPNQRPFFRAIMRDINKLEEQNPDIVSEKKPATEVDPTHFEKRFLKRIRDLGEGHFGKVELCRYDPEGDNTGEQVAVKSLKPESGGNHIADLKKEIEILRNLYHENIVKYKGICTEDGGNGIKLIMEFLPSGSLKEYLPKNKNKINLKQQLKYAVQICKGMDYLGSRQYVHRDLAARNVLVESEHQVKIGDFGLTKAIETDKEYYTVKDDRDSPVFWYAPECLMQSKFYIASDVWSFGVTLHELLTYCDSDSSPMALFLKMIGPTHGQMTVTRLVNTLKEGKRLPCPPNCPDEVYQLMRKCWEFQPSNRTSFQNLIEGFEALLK
Aurora kinase A (Homo sapiens), sequence (O14965 whole entry): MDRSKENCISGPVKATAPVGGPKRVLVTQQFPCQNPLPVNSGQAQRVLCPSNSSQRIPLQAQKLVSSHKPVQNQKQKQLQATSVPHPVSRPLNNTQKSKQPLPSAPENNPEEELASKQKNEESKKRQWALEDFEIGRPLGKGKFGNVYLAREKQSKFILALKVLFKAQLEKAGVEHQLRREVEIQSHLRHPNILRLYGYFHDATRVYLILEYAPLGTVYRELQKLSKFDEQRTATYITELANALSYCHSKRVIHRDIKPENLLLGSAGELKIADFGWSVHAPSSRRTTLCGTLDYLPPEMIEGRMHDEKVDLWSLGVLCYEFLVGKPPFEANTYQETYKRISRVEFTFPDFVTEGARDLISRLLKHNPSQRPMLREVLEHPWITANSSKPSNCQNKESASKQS

- inhibition [1]: inactive
- inhibition [2]: inactive
- inhibition [3]: inactive
- inhibition [4]: inactive
- inhibition [5]: inactive
- inhibition [6]: inactive
- inhibition [7]: inactive
- GI50 [8]: Active
- inhibition [9]: inactive
- inhibition [10]: inactive
- inhibition [11]: inactive
- inhibition [12]: inactive
- inhibition [13]: inactive
- inhibition [14]: inactive
- inhibition [15]: inactive
- inhibition [16]: inactive
- inhibition [17]: inactive
- inhibition [18]: inactive
- inhibition [19]: inactive
- inhibition [20]: inactive
- inhibition [21]: inactive
- inhibition [22]: inactive
- inhibition [23]: inactive
- inhibition [24]: inactive
- inhibition [25]: inactive
- inhibition [26]: inactive
- inhibition [27]: inactive
- IC50 [28]: 216 nM
- inhibition [29]: inactive
- inhibition [30]: inactive
- inhibition [31]: inactive
- inhibition [32]: inactive
- inhibition [33]: inactive
- inhibition [34]: inactive
- inhibition [35]: inactive
- inhibition [36]: inactive
SMILES: Cc1ccccc1C(=O)Nc1cnoc1C
